Results on 13 molecules are retold here after PMC9084191 (European Journal of Pharmaceutics and Biopharmaceutics, 2022).

Where two headings read alike, the source gives them in different places.

For data set [1] the following is noted: cited from earlier work.
Data set [2] can be described thus: Nucleation induction time measurement. Conditions: for Induction time (tind): 37 °C, no polymer. Format: physicochemical.
Data set [3] is described as follows: Glass transition temperature by DSC. The note with it: for Tg: neat drug, salt or polymer. The format is physicochemical. The procedure:
The glass transition temperatures (Tg) of drug, polymers and ASD samples were determined using a TA Q2000 DSC equipped with an RCS90 refrigeration unit (TA Instruments, New Castle, DE). The temperature calibration was performed using indium and tin, while enthalpy calibration was conducted with indium. Samples (5–10 mg) were added to aluminum pans with a pinhole lid (Tzero pan, TA Instrument, DE). […] The heating and cooling cycle was repeated 3 times to remove residual solvent and thermal history, and the last cycle was used for analysis.

The nature of data set [4]: Water sorption analysis. The format is physicochemical. The note with it: for Water sorption (%) at 95 % RH: 37 °C. The procedure:
Water sorption profiles of DLM salts and ASDs were measured by using a SGA-100 symmetrical gravimetric analyzer (TA Instrument, New Castle, DE) at 37 °C. Samples (10–20 mg) were flushed with dry air for 3 h. After drying, samples were exposed to increasing relative humidity (RH) steps from 5 to 95% with a maximum step time of 180 min. Vapor sorption profiles are recorded as the equilibrium value (the weight change was below 0.001%/min over 5 min) at each RH.

A short description of data set [5]: Release testing of tablets, single-stage PBS pH 6.5. Format: physicochemical. The note with it: PBS pH 6.5, single stage. As for the experimental part:
(§1) The ASDs were mixed with excipients and compressed to obtain tablets containing 5 mg DLM with respect to the free base. All dissolution studies of DLM tablets were conducted in triplicate in single-stage or two-stage pH-shift condition using a Hanson Vision G2 Classic 6 dissolution system (Teledyne Hanson Research, Chatsworth, CA). For single-stage testing, the tablets containing the ASDs were added to 50 mL PBS, pH 6.5 and monitored for 1 h at 37° C, with 150 rpm of stirring. For pH-shift experiments, release in the acidic stage was conducted in 45 mL HCl solution pH 1.6 for 1 h, followed by addition of 5 mL concentrated PBS (pH 7.3) to adjust the pH of solution to pH 6.5 and drug release was monitored for an additional 30 min. An in situ Rainbow fiber optic ultraviolet spectrometer coupled with 10 mm fiber optic dip probes (Pion, Billerica, MA, USA) was used to monitor drug concentration over time. Second derivative analysis was applied to correct the spectral baseline and a calibration curve of area under curve (AUC) of the range 330–350 nm was used to calculate the drug concentration.

Data set [6] can be described thus: Release testing of tablets, two-stage pH-shift (pH 1.6 to 6.5). The format is physicochemical. The procedure: as §1
Data set [7] can be described thus: Dynamic light scattering of DLM-rich nanodroplets. Format: physicochemical. The note with it: HPMCP and HPMCAS solutions 300 µg/mL, drug 50 µg/mL, PBS pH 6.5, 3-h period. The procedure: The size of DLM-rich droplets formed above the amorphous solubility was measured by dynamic light scattering (DLS) using a Nano-Zetasizer (Nano-ZS, Malvern Instruments, Westborough, MA). […] To evaluate the impact of polymers on nanodroplet stability, polymers were pre-dissolved in solution at a concentration of 300 μg/mL and drug was introduced at 50 μg/mL. Samples were monitored for up to 3 h after liquid–liquid phase separation was initiated.

For data set [8] the following is noted: cited from earlier work. The source holds these as a separate data set.
On the set-up of data set [9]: method as in PMID 24881816. The note with it: predicted log P calculated by ALOGPS; cited from earlier work.
On the set-up of data set [10]: method as in earlier work. Conditions: predicted pKa; cited from earlier work.
A short description of data set [11]: Stability on storage at 40 °C/75% RH (PXRD, 19F NMR, HPLC). The format is physicochemical. The note with it: 2 weeks, 40 °C/RH 75%; for Drug content reduction (%): HPLC. The procedure: The salt form of DLM was prepared using a Buchi Rotavapor-R (Newcastle, Delaware). DLM free base and sulfonic acid were added at drug-acid 1:1 molar ratio in a mixture of DCM and acetone (1:1 v/v) where alcoholic solvents were avoided to prevent the formation of alkyl esters during salt synthesis. Solvents were removed by rotary evaporation at 40 °C. DLM salts were then kept under vacuum at room temperature overnight to remove residual solvents. DLM salts were characterized by ^1H-nuclear magnetic resonance (NMR) spectroscopy to confirm salt formation. Their physical and chemical stability were monitored following storage at 40 °C/75% relative humidity (RH) by measuring several physicochemical properties, including crystallinity (by powder X-ray diffraction, PXRD), impurities (by ^19F NMR spectroscopy), drug content (by HPLC as described above) and hygroscopicity (using dynamic vapor sorption analysis).
(§2) Crystallinity of ASDs and DLM salts was evaluated using a Rigaku Smartlab diffractometer (Rigaku Americas, The Woodlands, TX) equipped with a Cu–Kα radiation source and a D/tex ultradetector. Samples were added to glass sample holders, and powder patterns were recorded over the range of 4-40° 2θ at a scanning speed of 4° per min and a 0.02° step size with the voltage and current set to 40 kV and 44 mA, respectively.
Salt formation was confirmed by ^1H nuclear magnetic resonance (NMR) spectroscopy and impurities in DLM salts following preparation and storage were detected by ^19F NMR spectroscopy. Samples were dissolved in dimethyl sulfoxide-d6 (Cambridge Isotope Laboratories, Inc., Andover, MA) at a concentration of 20 mg/mL. All NMR spectra were acquired on a Bruker DRX 500 MHz spectrometer (Karlsruhe, Germany) equipped with a BBFO z-gradient probe operating at room temperature. For ^1H NMR spectra, the spectral sweep width was 20 ppm, acquisition time was 1.6 sec and number of scans was 16. For ^19F NMR spectroscopy, ^1H was decoupled during acquisition, spectral sweep width was 50 ppm, acquisition time was 1.4 sec and the number of scans was 64.

Data set [12] in a line: Crystallinity by PXRD following preparation. The note with it: immediately following preparation. Format: physicochemical. As for the experimental part:
as §2

[13] abbreviates: value of the strongest acidity, ref [2] of supplement.
The mark [14] stands for this setting: value of the strongest acidity, ref [3, 4] of supplement.

In general, pKa refers to the negative logarithm of the acid dissociation constant. Regarding `CCS(=O)(=O)O` [Ethanesulfonic, Ethanesulfonic acid], the pKa is on record as -1.68 in data set [1] (setting [13]) and -2.05 in data set [1] (value of the strongest acidity, ref [3] of supplement).
Usually Log P stands for the decadic logarithm of the partition coefficient of the neutral form, usually between octanol and water. Take `C[C@]1(COc2ccc(N3CCC(Oc4ccc(OC(F)(F)F)cc4)CC3)cc2)Cn2cc([N+](=O)[O-])nc2O1` [Delamanid]: the Induction time was 10.2 ± 3.1 min in data set [2] (PBS pH 6.5, Eud-L100 300 µg/mL); “about 50 min” in [2] (PBS pH 6.5, HPMC 300 µg/mL); “more than 1000 min” in data set [2] (PBS pH 6.5, HPMCAS 300 µg/mL); “more than 1000 min” in data set [2] (PBS pH 6.5, HPMCP 300 µg/mL); “more than 1000 min” in [2] (PBS pH 6.5, PVPVA 300 µg/mL); more than 720 min in data set [2] (in presence of PVPVA, HPMCAS or HPMCP). In data set [3] (cooling from the melt at 50 °C/min), the “Glass forming ability class” value is given as “Class I”. The Tg was found to be 43.3 °C in data set [3] and 43.3 ± 0.4 °C in [3] (listed as delamanid free base). Besides, the “Hygroscopicity (in words)” value in data set [4] is “non-hygroscopic”. In addition, in data set [5], the “Drug release (in words)” value is on record as “no release was detected”. Further, the “Drug concentration released in acid stage” value in data set [6] (pH-shift experiment, low pH (1.6) stage) is listed as “around 20 µg/mL”. Moreover, the Nanodroplet size change entry in data set [7] was “no notable change”. The figures for the “Log P” value in data set [8] and in data set [9] were 5.67 and 6.14, respectively. The pKa in data set [1] is 4.3; in data set [10], 3.99.
For the molecule `O=S(=O)(O)c1ccc(Cl)cc1` [Chlorobenzenesulfonic, 4-chlorobenzenesulfonic acid], the pKa in [1] (value of the strongest acidity, ref [5] of supplement) was -0.61 [5].
Turning to `O.O.O=S(=O)(O)CCS(=O)(=O)O` [Ethanedisulfonic, 1,2-Ethanedisulfonic acid dihydrate], the pKa in [1] (setting [14]) was -2.1 [3, 4].
Consider `C[C@]1(COc2ccc(N3CCC(Oc4ccc(OC(F)(F)F)cc4)CC3)cc2)Cn2cc([N+](=O)[O-])nc2O1.O=S(=O)(O)c1ccc(Cl)cc1` [Closylate], for which the Tg in data set [3] stood at 90.1 °C. Also, the “Water sorption (%) at 95 % RH” value in data set [4] amounted to 5.8%. Besides, in data set [11], the “Impurity (19F NMR) (%)” value is recorded as 2.3%, the Liquefaction entry was “liquefaction” and the “Drug content reduction (%)” value worked out at 3.1%.
Take Tosylate: in data set [2] (FaSSGF (pH 1.6), at amorphous solubility), the “Induction time (tind)” value is listed as 1.0 min. Also, the “Induction time (tind)” value in data set [2] (PBS pH 6.5, at amorphous solubility) worked out at 18.5 min. The Tg in [3] was determined as 90.2 °C. Besides, in data set [4], the “Water sorption (%) at 95 % RH” value is 6.1%. In addition, in data set [11], the “Impurity (19F NMR) (%)” value is reported as 1.0%, the Liquefaction result is recorded as “liquefaction” and the “Drug content reduction (%)” value worked out at 2.1%.
In the case of `CC1(COc2ccc(N3CCC(Oc4ccc(OC(F)(F)F)cc4)CC3)cc2)Cn2cc([N+](=O)[O-])nc2O1.CC1(COc2ccc(N3CCC(Oc4ccc(OC(F)(F)F)cc4)CC3)cc2)Cn2cc([N+](=O)[O-])nc2O1.O=S(=O)(O)c1cccc2c(S(=O)(=O)O)cccc12` (stereo not shown) [Napadisylate (2:1)], in data set [12], the “Crystallinity by PXRD (in words)” value is reported as “partial crystallization”.
Turning to `C[C@]1(COc2ccc(N3CCC(Oc4ccc(OC(F)(F)F)cc4)CC3)cc2)Cn2cc([N+](=O)[O-])nc2O1.C[C@]1(COc2ccc(N3CCC(Oc4ccc(OC(F)(F)F)cc4)CC3)cc2)Cn2cc([N+](=O)[O-])nc2O1.O=S(=O)(O)CCS(=O)(=O)O` [Edisylate (2:1)], the Tg in data set [3] amounted to 117.8 °C. Besides, the “Water sorption (%) at 95 % RH” value in data set [4] is 11.6%. Also, in data set [11], the “Impurity (19F NMR) (%)” value was determined as 1.0% and the “Drug content reduction (%)” value was determined as 0.8%. The “Drug release (in words)” value in data set [5] is “no release”. Further, the “Release in acidic medium (in words)” value in data set [6] (acid stage of pH-shift experiment) was “slightly higher than that observed for DLM free base”.
With `CC1(C)[C@@H]2CC[C@@]1(CS(=O)(=O)O)C(=O)C2.C[C@]1(COc2ccc(N3CCC(Oc4ccc(OC(F)(F)F)cc4)CC3)cc2)Cn2cc([N+](=O)[O-])nc2O1` [Camsylate], the Tg in data set [3] was 97.9 °C. Further, the “Water sorption (%) at 95 % RH” value in data set [4] came out at 8.1%. In data set [11], the “Impurity (19F NMR) (%)” value came to 2.0% and the “Drug content reduction (%)” value amounted to 6.1%.
For the molecule `C[C@]1(COc2ccc(N3CCC(Oc4ccc(OC(F)(F)F)cc4)CC3)cc2)Cn2cc([N+](=O)[O-])nc2O1.O=S(=O)(O)CCS(=O)(=O)O` [DLM-edisylate (1:1)], in data set [3], the Tg was determined as 53.9 °C. Moreover, in [4], the “Water sorption (%) at 95 % RH” value was 59%.
For `O=S(=O)(O)c1cccc2c(S(=O)(=O)O)cccc12` [Naphthalenedisulfonic, 1,5-naphthalenedisulfonic acid], in data set [1] (setting [14]), the pKa was 0.17 [3, 4].
For the molecule `O=S(=O)(O)c1ccccc1` [Benzenesulfonic, benzenesulfonic acid], in data set [1] (setting [13]), the pKa is given as -2.8.
Turning to `CC1(C)C2CC[C@@]1(CS(=O)(=O)O)C(=O)C2` [Camphorsulfonic, (1S)-(+)-10-camphorsulfonic acid], in data set [1] (value of the strongest acidity, ref [6] of supplement), the pKa is 1.2 [6].
